Measurements taken from patent publication EP2488529B1, “Spirocyclic derivatives as histone deacetylase inhibitors” (DAC S.r.l., priority 2009, dated 2011).

Assays:
[1] = target: HDAC; experiment: Assay of enzyme inhibition of HDAC (BIOMOL kit, fluorescence); type: biochemical; conditions: nuclear fraction of Hela cells; substrate 200 µM; 15 min at RT
Procedure: The in-vitro activity of HDAC inhibitors was assayed using a BIOMOL Kit, according to the instructions from the manufacturer (Biomolecular Research Laborator). 15 µl of 30 x diluted nuclear fraction of Hela cells, was diluted to 50 µl with the assay buffer containing the HDAC inhibitor and the substrate (lysine with acetylated amino group on the side chain) at a concentration of 200 µM. The samples were incubated for 15 min at RT and then exposed to a developer (10 min at RT). In this last step a fluorophore was produced, whose fluorescence was measured using an excitation wavelength of 355 nm and an emission at 460 nm. The IC50 was calculated using GraphPad Software.

[2] = test system: A549; experiment: Cell growth, CellTiter-Glo Luminescent Cell Viability Assay (antiproliferative assay); type: cell-based; conditions: Homo sapiens; A549 cells, incubated for 72 h
Description: (§1) CellTiter-Glo® Luminescent Cell Viability Assay (Promega) is a homogeneous method of determining the number of viable cells in culture based on quantitation of the present ATP, which indicates the presence of metabolically active cells. The homogeneous assay procedure involves addition of a single reagent (CellTiter-Glo® Reagent) directly to the cells, which leads to cell lysis and generation of a luminescent signal proportional to the amount of the ATP and the number of cells present in culture. The assay relies on the properties of a proprietary thermostable luciferase (Ultra-Glo® recombinant luciferase), which generates a luminescent signal. K562, A549, and HCT-116 cells, in exponential growth, were incubated for 72 h with different concentrations of the inhibitors. After 72 h, a volume of CellTiter-Glo® Reagent equal to the volume of cell culture medium was added. The content was mixed for 2 min to induce cell lysis. The luminescence was recorded after further 10 min at RT in order to obtain a stable luminescent signal.
(§2) The IC50 was calculated using GraphPad Software.

[3] = test system: HCT-116; experiment: as above; type: cell-based; conditions: Homo sapiens; HCT-116 cells, incubated for 72 h; read-out: HCT116 IC50
Description: as §1, §2

[4] = test system: K562; experiment: as above; type: cell-based; conditions: Homo sapiens; K562 cells, incubated for 72 h
Description: as §1, §2

Compound	IC50 [1]	IC50 [2]	IC50 [3]	IC50 [4]
O=C(/C=C/c1cc(F)c2c(c1)C(=O)CC1(CCN(Cc3ccccc3)CC1)O2)NO [Example 51, (E)-3-(1'-Benzyl-8-fluoro-4-oxospiro[chroman-2,4'-piperidine]-6-yl)-N-hydroxy-acrylamide]	100 to 1000 nM	1000 to 3000 nM	≤ 1000 nM	≤ 1000 nM
Cc1cc(/C=C/C(=O)NO)cc2c1OC1(CCN(Cc3ccccc3)CC1)CC2=O [Example 52, (E)-3-(1'-Benzyl-8-methyl-4-oxospiro[chroman-2,4'-piperidine]-6-yl)-N-hydroxy-acrylamide]	100 to 1000 nM	1000 to 3000 nM	≤ 1000 nM	≤ 1000 nM
CON=C1CC2(CCCN(Cc3ccc(F)cc3)C2)Oc2ccc(/C=C/C(=O)NO)cc21 (centres unmarked) [Example 53, (E)-3-(1'-(4-Fluorobenzyl)-4-(methoxyimino)spiro[chroman-2,3'-piperidine]-6-yl)-N-hydroxyacrylamide]	≥ 1000 nM	≥ 3000 nM	1000 to 3000 nM	1000 to 3000 nM
O=C(/C=C/c1ccc2c(c1)C(=NO)CC1(CCCN(C3CCCC3)C1)O2)NO (centres unmarked) [Example 54, (E)-3-(1'-Cyclopentyl-4-(hydroxyimino)spiro[chroman-2,3'-piperidine]-6-yl)-N-hydroxyacrylamide]	≤ 100 nM	≤ 1000 nM	≤ 1000 nM	≤ 1000 nM
O=C(/C=C/c1ccc2c(c1)C(=NOCc1ccccc1)CC1(CCCN(CCc3ccccc3)C1)O2)NO (centres unmarked) [Example 55, (E)-3-(4-(Benzyloxyimino)-1'-phenethylspiro[chroman-2,3'-piperidine]-6-yl)-N-hydroxyacrylamide]	≥ 1000 nM	1000 to 3000 nM	≤ 1000 nM	≤ 1000 nM
